Assays:
[1] = test system: murine MM cells; experiment: In vitro viability assay, murine MM-derived cell lines; assay type: cell-based, mouse; conditions: 48 hours, Deep Blue Cell Viability Kit
Description: (§1) Mice were monitored twice weekly for signs of disease and were then sacrificed. […] The samples that were able to grow for weeks ex vivo were tested for the presence of the original transgenic lesions and then characterized. Eight MM-derived cells lines established from mice carrying different lesions. In vitro therapy assays. For viability assays, murine or human MM cells were seeded in 96-well black culture plates and treated with different drugs alone or in combination for 48 hours. Cell viability was quantified using a Deep Blue Cell Viability™ Kit (Biolegend) and analyzed with a Skanit Varioskan Flash 2.4.3 (Thermo Scientific) fluorometer. Treatments were administered to cells at a density of 0.3×10^6 cells/ml, and all tests were performed in triplicate. After treatment, cells were subjected to qRT-PCR or Western blot analyses, as indicated, according to previously reported methods.

[2] = test system: human MM cells; experiment: In vitro viability assay, human MM cell lines; assay type: cell-based; conditions: 48 hours, Deep Blue Cell Viability Kit
Description: (§2) Ten cell lines derived from MM patients (RPMI8226, KMS12, KMS26, KMS11, MM1S, U266, K620, JJN3, H929, and MOLP2) were included in this study. All have been validated according to the AmpFLSTR® Identifiler®, were tested for Mycoplasma sp.
as §1

[3] = test system: MYC; experiment: MYC expression and phosphorylation after treatment (Western blot, qRT-PCR), mouse MM cell lines; assay type: cell-based
Description: (§3) A total of 1 μg of total RNA from GFP^+-sorted cells was isolated with a NucleoSpin RNA kit (Macherey-Nagel) and reverse transcribed into cDNA using MMLV enzyme technology (Invitrogen). PCR was performed on an ABI Viia7 instrument using SYBR green fluorophore and primers designed to amplify specific mouse or human genes. Specific primers are listed in the Key Resources Table.
as §1

[4] = biological target: T1, MYC (Homo sapiens, UniProt P01106); experiment: MYC expression and phosphorylation after treatment (Western blot, qRT-PCR), human MM cell lines; assay type: cell-based
T1 construct: Western blot analysis of MYC protein expression in human MM cell lines; endogenous in cells; host or cells: human MM cell lines (of RPMI8226, KMS12, KMS26, KMS11, MM1S, U266, K620, JJN3, H929, MOLP2)
T1 sequence (P01106 whole entry): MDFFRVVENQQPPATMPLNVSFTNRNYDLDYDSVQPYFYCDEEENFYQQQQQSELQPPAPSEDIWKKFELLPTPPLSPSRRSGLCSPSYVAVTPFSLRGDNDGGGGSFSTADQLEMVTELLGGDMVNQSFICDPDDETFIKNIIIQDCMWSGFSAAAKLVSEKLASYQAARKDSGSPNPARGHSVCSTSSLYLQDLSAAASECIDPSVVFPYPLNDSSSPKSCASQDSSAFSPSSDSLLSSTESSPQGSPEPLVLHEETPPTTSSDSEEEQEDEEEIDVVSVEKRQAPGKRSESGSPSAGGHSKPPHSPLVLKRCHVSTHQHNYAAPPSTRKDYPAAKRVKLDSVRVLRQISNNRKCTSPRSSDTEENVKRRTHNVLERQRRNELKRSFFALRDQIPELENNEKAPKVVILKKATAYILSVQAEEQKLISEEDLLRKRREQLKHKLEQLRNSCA
Description: as §3, §2
as §1, with “After treatment, cells were subjected to qRT-PCR or Western blot analyses, as indicated, according to previously reported methods.” left out

- MYC protein expression [4]: dose-dependent MYC protein reduction
Substance: MYCi975
- MM cell viability [1]: decreased viability
- MM cell viability [2]: decreased viability
- MYC protein expression [3]: dose-dependent MYC protein reduction
